Values after ≈ are worked out from the molar mass of the structure shown.
What was measured:
KG-1a cells = assay: Cytotoxicity by MTT assay in KG-1a cells; format: cell-based; settings: Homo sapiens, 48 h, read-out: IC50 values (mean ± SD) KG-1a
Procedure: (§1) Leukaemic cell lines including KG-1a (leukaemic stem cell-like cell line with stem cell population), EoL-1 (human […] leukaemic cell line), and K562 (human erythroid leukaemic cell line) were cultured as previously described. The MTT (3-(4,5-dimethylthiazol-2-yl)-2,5-diphenyltetrazolium bromide) assay was used to determine the cytotoxicity of […] extracts and active compounds on leukaemic cells. The method was described previously. K562 (1.0 × 10^5 cells/mL), EoL-1 (3.0 × 10^5 cells/mL), and KG-1a (2.0 × 10^5 cells/mL) were added samples and then incubated for 48 h. The percentage of surviving cells was calculated using the following equation: 1 %Cellviability=Meanabsorbanceintestwell/[…] 50% inhibitory concentration (IC50) was determined as the lowest concentration that inhibited cell growth by 50% compared with the untreated control.

PBMCs = assay: Cytotoxicity of PBMCs by MTT assay; format: cell-based; settings: Homo sapiens, PBMC, 48 h, normal PBMCs, read-out: IC50 values (mean ± SD) PBMCs
Procedure: Method was done as previously described. Briefly, peripheral blood mononuclear cells (PBMCs) were obtained from healthy donors using Ficoll-Hypaque density-gradient centrifugation using Lymphoprep™ solution (Axis-Shield, Oslo, Norway). The PBMCs (1 × 10^6 cells/mL) were cultured in complete RPMI-1640 medium in 96-well plates overnight in a CO2 incubator. […] Then cells were further incubated for 48 h. The survival rate of cells was assessed using the MTT assay.

K562 cells [1] = assay: Rate of proliferation, K562 cells; format: cell-based, human; settings: for decrease of rate of proliferation, K562 cells: IC20 value, 24 and 48 h (time-response), vs control; for rate of cell proliferation, K562 cells (in words): concentrations IC10 − IC20 values, 48 h
Procedure: (§2) According to the principle of trypan blue exclusion, viable cells with intact membranes can exclude trypan blue dye, while dead cells with compromised membranes are stained by the trypan blue dye solution. A cell suspension and trypan blue dye solution (0.2%) were mixed, and viable and dead cells were counted under microscope using a hemacytometer. Then, the percentage of viable cells was calculated. KG-1a, EoL-1 and K562 cells were cultured with crude fractional extracts and active pure compounds at various concentrations (10 − 20% growth inhibition; IC10 − IC20 values) of each extract for 48 h, at a 20% growth inhibition (IC20 value) of each extract for 24 and 48 h. Following incubation, cells were harvested, and the total cell number was counted using trypan blue exclusion method. Three independent experiments were plotted as a dose–response curve and compared with the vehicle control. Meanwhile, the total cell number of each cell line after fractional extract and pure compound treatments at 24 and 48 h were calculated and plotted as a time-response curve. Slopes from each graph were considered as the rate of cell proliferation.

RBC haemolysis induction = settings: human, 2% red blood cell suspension
Procedure: The whole blood samples were obtained from normal volunteers. Red blood cells were separated by centrifugation and washed 2 times with 0.9% NaCl. Then, 2% RBC suspension was incubated with crude fractional extracts and compounds at 37 °C for 30 min. Triton-X 100 (2%) and NaCl (0.9%) were positive and negative controls, respectively. Then, the supernatant was collected, and haemoglobin concentration was measured by spectrophotometry at 540 nm. The haemolysis induction was calculated using the following equation:5 %Haemolysisinduction=Absorbance of sample/Absorbance of positive contr×100

EoL-1 cells [2] = assay: Cytotoxicity by MTT assay in EoL-1 cells; format: cell-based; settings: Homo sapiens, EOL1, 48 h, read-out: IC50 values (mean ± SD) EoL-1
Procedure: as §1

EoL-1 cells [3] = assay: Rate of proliferation, EoL-1 cells; format: cell-based, human; settings: for decrease of rate of proliferation, EoL-1 cells: IC20 value, 24 and 48 h (time-response), vs control; for rate of cell proliferation, EoL-1 cells (in words): concentrations IC10 − IC20 values, 48 h
Procedure: as §2

IL-2 = IL-2 secretion in PHA-stimulated PBMCs (ELISA); format: cell-based, human; settings: sample at IC20 value, vs dexamethasone 1 μg/mL
Description: Mouse monocyte macrophage RAW 264.7 cells (American Type Culture Collection, […]-71) were stimulated with lipopolysaccharide (LPS) or phytohemagglutinin (PHA). The LPS treated RAW 264.7 cells served as a vehicle control, of which the NO production, and the secreted cytokines were defined as 100%, whereas a negative control was non-treated RAW 264.7 cells. Dexamethasone (an anti-inflammatory drug) was used as a positive control. PBMCs (1 × 10^5 cells/well in RPMI-1640 for IL-2) and Raw cells (1 × 10^5 cells/well in DMEM for TNF-α) were seeded for 24 h in a CO2 incubator set at 37 °C and 5% CO2/95% humidified air. Then cells were treated with […] fractional extracts (IC20 value) or pure compounds (IC20 value), or dexamethasone (1 μg/mL) were added. Following 2-h of incubation in a CO2 incubator, LPS was treated for a final dose of 1 μg/mL under conditions of TNF-α measurement. In contrast, PHA was added to induce inflammation in IL-2 measurement. After 24 h, the media were removed and centrifuged at 13,500 × g for 10 min and 100 μL of the supernatant was analysed by the protocol of R&D Systems, Minneapolis, MN, USA using ELISA technique. The absorbance was measured at 450 nm and corrected with the reference wavelength of 570 nm (Beckman CoulterDTX880, Fullerton, CA, USA). Viability of PBMCs and RAW 264.7 cells was also determined using MTT assay as described previously. IL-2 and TNF-α secretion inhibitions were calculated as bellow:4 %Cytokineinhibition=A-B/A×100 A is the optical density of the mixture without the sample, while B is the optical density of the mixture with the sample. Dexamethasone was a positive control. All experiments were done in triplicate.

RAW 264.7 cells = assay: RAW 264.7 cell viability by MTT assay; format: cell-based; settings: Mus musculus, RAW264.7, read-out: IC20 values (concentrations at 80% of RAW 264.7 cells)
Procedure: Mouse monocyte macrophage RAW 264.7 cells (American Type Culture Collection, […]-71) were stimulated with lipopolysaccharide (LPS) or phytohemagglutinin (PHA). The LPS treated RAW 264.7 cells served as a vehicle control, of which the NO production, and the secreted cytokines were defined as 100%, whereas a negative control was non-treated RAW 264.7 cells. Dexamethasone (an anti-inflammatory drug) was used as a positive control. RAW 264.7 cell viability was also determined with the assay kit using MTT assay. The supernatant was removed, and MTT was added. After 2 h in a CO2 incubator, the supernatant was removed, and the formazan crystal were dissolved with DMSO. The optical density was measured at 578 nm and corrected with the reference wavelength of 630 nm using a multimode detector (Beckman CoulterDTX880, Fullerton, CA, USA). NO inhibitions were calculated using the following equation: […]

K562 cells [4] = assay: Cytotoxicity by MTT assay in K562 cells; format: cell-based; settings: Homo sapiens, 48 h, read-out: IC50 values (mean ± SD) K562
Procedure: as §1

SMILES | IC50 (KG-1a cells) [µg/mL] | IC50 (PBMCs) [µg/mL] | decrease of rate of proliferation, K562 cells (K562 cells [1]) | rate of cell proliferation, K562 cells (in words) (K562 cells [1]) | hemolysis at 30 min, 50 μg/mL (RBC haemolysis induction) [%] | hemolysis at 30 min, 100 μg/mL (RBC haemolysis induction) [%] | hemolysis at 30 min, 150 μg/mL (RBC haemolysis induction) [%] | IC50 (EoL-1 cells [2]) [µg/mL] | decrease of rate of proliferation, EoL-1 cells (EoL-1 cells [3]) | IL-2 inhibition (IL-2) | IC20 (RAW 264.7 cells) [µg/mL] | IC50 (K562 cells [4]) [µg/mL] | hemolysis at 30 min, 10 μg/mL (RBC haemolysis induction) [%] | rate of cell proliferation, EoL-1 cells (in words) (EoL-1 cells [3]) | hemolysis at 30 min, 20 μg/mL (RBC haemolysis induction) [%] | hemolysis at 30 min, 40 μg/mL (RBC haemolysis induction) [%]
O=c1c(O)c(-c2ccc(O)cc2O)oc2cc(O)cc(O)c12 [Morin, 2’,3,4’,5,7-pentahydroxyflavonone] | > 100 | > 100 | decrease the proliferation rate | significant difference at concentrations of 70, 80, and 90 µg/mL | 9.39 ± 1.34 | 9.82 ± 1.09 | 10.2 ± 1 | 18.4 ± 1.6 (≈ 60.7 µM) | decrease the proliferation rate | suppressed IL-2 significantly better than dexamethasone | 62.4 ± 7.44 (≈ 206 µM) | > 100 | – | – | – | –
O=c1c(O)c(-c2ccc(O)c(O)c2)oc2cc(O)cc(O)c12 [Quercetin, quercetin] | 72.6 ± 7.45 (≈ 240 µM) | > 100 | significantly decreasing rates of proliferation | significantly decreasing rate of cell proliferation | 8.85 ± 0.21 | 8.74 ± 0.26 | – | 5.89 ± 0.46 (≈ 19.5 µM) | significantly decreasing rates of proliferation | suppressed IL-2 significantly better than dexamethasone | 35.5 ± 6.49 (≈ 118 µM) | > 100 | 8.51 ± 0.86 | significantly decreasing rate of cell proliferation | – | –
Oc1ccc(/C=C/c2cc(O)cc(O)c2)cc1 [Resveratrol, resveratrol] | 20.7 ± 2.65 (≈ 90.7 µM) | 44 ± 9.7 (≈ 193 µM) | 93.20% | significantly decreasing rate of cell proliferation | – | – | – | 5.49 ± 0.29 (≈ 24.1 µM) | 95.45% | suppressed IL-2 significantly better than dexamethasone | 3.4 ± 0.2 (≈ 14.9 µM) | 41.6 ± 1.92 (≈ 182 µM) | 8.96 ± 1.83 | significantly decreasing rate of cell proliferation | 8.58 ± 0.67 | 8.95 ± 0.21

From paper PMC10257291, “Biological activities of extracts and compounds from Thai Kae-Lae (Maclura cochinchinensis (Lour.) Corner)” (BMC Complementary Medicine and Therapies, 2023)
